These results are taken from US20080004247A1, “Combinations of Statins with Bronchodilators” (ASTRAZENECA AB, priority 2004, published 2008).

The assay can be described thus: Meta-analysis of 2 one-year clinical trials: incidence of severe COPD exacerbations with and without concomitant statins. It is filed as in vivo, patients. The following applies: severe exacerbations = need for a treatment course of oral corticosteroids. As for the experimental part: A meta-analysis was performed from 2 one-year clinical trials in moderate to severe COPD. Patients treated with budesonide (Pulmicort®), formoterol (Oxis®), formoterol+budesonide (Symbicort®) or Placebo were analysed with and without statins as concomitant medication. The incidence of severe exacerbations, defined as need for a treatment course of oral corticosteroids, was determined.

Where [1] appears, read: PLUS STATINS as concomitant medication.

Regarding `CCCC1O[C@@H]2C[C@H]3[C@@H]4CCC5=CC(=O)C=C[C@]5(C)[C@H]4[C@@H](O)C[C@]3(C)[C@]2(C(=O)CO)O1` (stereo partly shown) [Budesonide, budesonide], the “Incidence of exacerbations per year” value (EXCLUDING STATINS) is recorded as 0.9 (n = 379) per year and the “Incidence of exacerbations per year” value under setting [1] is 0.7 (n = 8) per year.

On to `COc1ccc(CC(C)NCC(O)c2ccc(O)c(NC=O)c2)cc1` (stereo not shown) [Formoterol, formoterol], for which the “Incidence of exacerbations per year” value is 1.0 (n = 388) per year (EXCLUDING STATINS) and 0.4 (n = 9) per year under setting [1].
